Measurements as given in ChEMBL document CHEMBL1154536, “Optimization of 4,6-bis-anilino-1H-pyrrolo[2,3-d]pyrimidine IGF-1R tyrosine kinase inhibitors towards JNK selectivity” (Bioorg Med Chem Lett, 2009).

What was measured:
[1] = target: T1, Insulin-like growth factor 1 receptor (Homo sapiens, UniProt P08069); test: Inhibition of IGF-1R
[2] = target: Mitogen-activated protein kinase 8 (Homo sapiens, UniProt P45983); test: Inhibition of His-tagged JNK1
[3] = target: T1, Insulin-like growth factor 1 receptor; test: Inhibition of phospho IGFR1 by cellular assay
[4] = Clearance in rat at 2.6 mg/kg, iv and […] mg/kg, po; assay type: ADME, organism-based; conditions: in vivo
Rattus norvegicus [5] = test: Dose normalized AUC (0 to 8 hrs) in rat at 13 mg/kg, po; assay type: ADME, organism-based; set-up: time < 8 hr, dose 13 mg/kg, route oral; conditions: in vivo
[6] = Cmax in rat at 13 mg/kg, po; assay type: ADME, organism-based; set-up: dose 13 mg/kg, route oral; conditions: in vivo
[7] = Oral bioavailability in rat at 13 mg/kg, po; assay type: ADME, organism-based; conditions: in vivo
[8] = target: T1, Insulin-like growth factor 1 receptor; test: Inhibition of phospho IGFR1 by cellular assay in presence of 2%HSA
[9] = Clearance in rat at 2.5 mg/kg, iv and 10 mg/kg, po; assay type: ADME, organism-based; conditions: in vivo
Rattus norvegicus [10] = test: Dose normalized AUC (0 to 8 hrs) in rat at 10 mg/kg, po; assay type: ADME, organism-based; set-up: time < 8 hr, dose 10 mg/kg, route oral; conditions: in vivo
[11] = Cmax in rat at 10 mg/kg, po; assay type: ADME, organism-based; set-up: dose 10 mg/kg, route oral; conditions: in vivo
[12] = Oral bioavailability in rat at 10 mg/kg, po; assay type: ADME, organism-based; conditions: in vivo
[13] = target: Mitogen-activated protein kinase 10 (Homo sapiens, UniProt P53779); test: Inhibition of human His-tagged JNK3
Chain of Mitogen-activated protein kinase 10 (P53779 whole entry): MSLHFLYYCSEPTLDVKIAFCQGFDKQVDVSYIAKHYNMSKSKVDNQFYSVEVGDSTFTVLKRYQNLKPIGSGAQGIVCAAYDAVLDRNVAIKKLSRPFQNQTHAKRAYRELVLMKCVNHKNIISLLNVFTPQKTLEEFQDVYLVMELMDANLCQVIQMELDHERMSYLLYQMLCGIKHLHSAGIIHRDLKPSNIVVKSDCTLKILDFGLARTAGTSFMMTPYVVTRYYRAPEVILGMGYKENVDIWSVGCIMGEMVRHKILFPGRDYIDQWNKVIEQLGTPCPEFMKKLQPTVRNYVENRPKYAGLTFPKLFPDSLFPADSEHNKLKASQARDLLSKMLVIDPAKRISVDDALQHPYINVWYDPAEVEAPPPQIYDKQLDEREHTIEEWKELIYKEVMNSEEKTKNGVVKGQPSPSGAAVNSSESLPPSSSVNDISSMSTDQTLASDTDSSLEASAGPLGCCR

[14] = Clearance in rat at 2.5 mg/kg, iv and […] mg/kg, po; assay type: ADME, organism-based; conditions: in vivo
Rattus norvegicus [15] = test: Dose normalized AUC (0 to 8 hrs) in rat at 9 mg/kg, po; assay type: ADME, organism-based; set-up: time < 8 hr, dose 9 mg/kg, route oral; conditions: in vivo
[16] = Cmax in rat at 9 mg/kg, po; assay type: ADME, organism-based; set-up: dose 9 mg/kg, route oral; conditions: in vivo
[17] = target: ALK tyrosine kinase receptor (Homo sapiens, UniProt Q9UM73); test: Inhibition of ALK
Insulin receptor = Insulin receptor (Homo sapiens, UniProt P06213); test: Inhibition of IR
Chain of Insulin receptor (P06213 28-758 limits assumed): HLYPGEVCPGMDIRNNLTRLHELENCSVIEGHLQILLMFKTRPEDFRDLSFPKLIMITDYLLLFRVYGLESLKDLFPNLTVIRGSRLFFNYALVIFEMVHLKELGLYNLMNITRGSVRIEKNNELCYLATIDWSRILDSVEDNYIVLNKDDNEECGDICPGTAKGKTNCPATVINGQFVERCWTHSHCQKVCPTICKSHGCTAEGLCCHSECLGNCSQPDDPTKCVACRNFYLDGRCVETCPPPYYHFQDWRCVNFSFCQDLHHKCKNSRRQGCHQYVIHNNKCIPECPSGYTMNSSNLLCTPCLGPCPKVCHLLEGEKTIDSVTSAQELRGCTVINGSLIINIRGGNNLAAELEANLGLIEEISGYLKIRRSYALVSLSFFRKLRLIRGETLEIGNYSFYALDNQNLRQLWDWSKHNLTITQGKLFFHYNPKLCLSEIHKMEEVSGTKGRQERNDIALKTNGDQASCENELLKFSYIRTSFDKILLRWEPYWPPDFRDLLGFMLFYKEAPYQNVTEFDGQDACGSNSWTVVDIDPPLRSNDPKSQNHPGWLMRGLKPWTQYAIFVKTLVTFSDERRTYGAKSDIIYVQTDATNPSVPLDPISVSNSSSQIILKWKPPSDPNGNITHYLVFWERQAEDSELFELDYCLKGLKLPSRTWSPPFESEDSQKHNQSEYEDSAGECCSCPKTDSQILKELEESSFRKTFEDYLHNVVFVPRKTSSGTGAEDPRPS
Chain of Insulin receptor (P06213 763-1382 limits assumed): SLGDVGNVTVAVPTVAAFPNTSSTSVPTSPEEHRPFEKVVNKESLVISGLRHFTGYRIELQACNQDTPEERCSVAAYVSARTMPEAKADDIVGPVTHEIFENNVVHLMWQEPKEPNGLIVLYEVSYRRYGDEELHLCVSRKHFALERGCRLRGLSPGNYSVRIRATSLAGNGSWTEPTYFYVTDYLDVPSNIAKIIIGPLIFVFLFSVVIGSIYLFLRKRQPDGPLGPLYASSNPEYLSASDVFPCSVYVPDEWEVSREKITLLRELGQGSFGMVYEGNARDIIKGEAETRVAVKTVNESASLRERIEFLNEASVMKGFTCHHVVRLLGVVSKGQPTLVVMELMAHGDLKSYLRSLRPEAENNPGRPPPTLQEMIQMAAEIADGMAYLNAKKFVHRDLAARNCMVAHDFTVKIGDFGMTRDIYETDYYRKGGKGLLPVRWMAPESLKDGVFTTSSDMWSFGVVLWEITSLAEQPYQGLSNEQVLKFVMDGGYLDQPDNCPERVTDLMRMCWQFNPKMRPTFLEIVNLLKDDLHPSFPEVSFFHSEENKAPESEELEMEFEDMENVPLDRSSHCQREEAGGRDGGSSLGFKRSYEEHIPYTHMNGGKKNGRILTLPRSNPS

Chain of Mitogen-activated protein kinase 8 (P45983 whole entry): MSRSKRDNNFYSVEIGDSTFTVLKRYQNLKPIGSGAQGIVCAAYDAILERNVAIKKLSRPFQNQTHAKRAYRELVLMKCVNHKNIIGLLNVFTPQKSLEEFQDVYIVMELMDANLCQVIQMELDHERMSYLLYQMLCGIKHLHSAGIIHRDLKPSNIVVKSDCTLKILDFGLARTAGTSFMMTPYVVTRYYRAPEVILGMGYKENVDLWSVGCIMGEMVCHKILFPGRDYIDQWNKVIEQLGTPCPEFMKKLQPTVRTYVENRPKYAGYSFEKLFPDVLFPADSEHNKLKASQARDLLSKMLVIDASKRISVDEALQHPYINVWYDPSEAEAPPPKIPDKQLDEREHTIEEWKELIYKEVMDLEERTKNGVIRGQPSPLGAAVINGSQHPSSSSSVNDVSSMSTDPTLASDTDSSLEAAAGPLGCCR
T1 sequence (P08069 31-736 limits assumed): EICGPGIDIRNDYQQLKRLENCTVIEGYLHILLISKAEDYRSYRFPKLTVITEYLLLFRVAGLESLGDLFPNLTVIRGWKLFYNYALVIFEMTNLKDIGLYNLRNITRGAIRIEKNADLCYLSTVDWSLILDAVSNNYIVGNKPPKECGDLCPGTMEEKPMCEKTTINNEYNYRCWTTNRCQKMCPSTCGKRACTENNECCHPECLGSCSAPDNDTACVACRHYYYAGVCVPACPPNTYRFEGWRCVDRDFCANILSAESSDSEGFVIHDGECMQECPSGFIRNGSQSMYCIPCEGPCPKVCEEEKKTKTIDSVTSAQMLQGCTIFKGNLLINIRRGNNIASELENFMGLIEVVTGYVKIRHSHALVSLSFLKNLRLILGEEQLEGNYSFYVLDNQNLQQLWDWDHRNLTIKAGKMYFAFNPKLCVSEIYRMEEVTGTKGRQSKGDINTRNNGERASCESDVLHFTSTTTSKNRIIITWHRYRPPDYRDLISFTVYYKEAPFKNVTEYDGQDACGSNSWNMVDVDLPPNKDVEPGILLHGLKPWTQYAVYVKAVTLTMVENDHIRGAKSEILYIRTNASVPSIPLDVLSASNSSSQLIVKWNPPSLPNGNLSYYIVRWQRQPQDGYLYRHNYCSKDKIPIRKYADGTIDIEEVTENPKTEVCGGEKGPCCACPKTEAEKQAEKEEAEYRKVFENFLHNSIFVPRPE
T1 sequence (P08069 741-1367 limits assumed): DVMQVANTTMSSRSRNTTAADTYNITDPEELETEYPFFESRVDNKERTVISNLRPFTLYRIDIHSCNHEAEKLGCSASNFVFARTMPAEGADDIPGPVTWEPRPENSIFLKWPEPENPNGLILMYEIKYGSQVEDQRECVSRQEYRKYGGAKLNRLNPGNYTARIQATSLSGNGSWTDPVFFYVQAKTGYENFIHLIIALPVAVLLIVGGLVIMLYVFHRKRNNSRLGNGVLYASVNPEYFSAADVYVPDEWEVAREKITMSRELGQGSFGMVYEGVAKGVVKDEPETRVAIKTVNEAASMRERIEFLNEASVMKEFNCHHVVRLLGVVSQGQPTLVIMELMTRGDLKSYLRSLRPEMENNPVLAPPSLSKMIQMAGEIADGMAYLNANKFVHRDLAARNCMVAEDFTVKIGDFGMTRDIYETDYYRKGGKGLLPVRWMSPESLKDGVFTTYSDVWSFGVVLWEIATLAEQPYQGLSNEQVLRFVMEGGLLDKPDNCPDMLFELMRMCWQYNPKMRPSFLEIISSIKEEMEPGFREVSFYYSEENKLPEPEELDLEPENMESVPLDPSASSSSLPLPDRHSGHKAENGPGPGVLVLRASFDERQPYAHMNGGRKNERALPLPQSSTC

| SMILES | IC50 [1] [nM] | IC50 [2] [nM] | IC50 [3] [nM] | other results |
| --- | --- | --- | --- | --- |
| COc1cc(C)c(N(C)C(=O)CN(C)C)cc1Nc1nc(Nc2cccc(F)c2C(N)=O)c2cc[nH]c2n1 [GSK-2219385A] | 63 | 10000 | 1730 | – |
| COc1cc(C)c(NC(=O)CN(C)C)cc1Nc1nc(Nc2cccc(F)c2C(N)=O)c2cc[nH]c2n1 [GSK-2213727A] | 0.5 | 2000 | 38 | – |
| COc1cc2c(cc1Nc1nc(Nc3cccc(F)c3C(N)=O)c3cc[nH]c3n1)N(CCN(C)C)CC2 | 40 | 100 | 794 | – |
| COc1cc(Cl)c(OCCCN(C)C)cc1Nc1nc(Nc2cccc(F)c2C(N)=O)c2cc[nH]c2n1 | 13 | 1260 | 895 | – |
| COc1cc2c(cc1Nc1nc(Nc3cccc(F)c3C(N)=O)c3cc[nH]c3n1)N(C(=O)CN(C)OC)CC2 | 50 | 794 | 877 | – |
| COc1cc2c(cc1Nc1nc(Nc3cccc(F)c3C(N)=O)c3cc[nH]c3n1)N(C(=O)CN(C)C)CCC2 | 1 | 6310 | 16 | – |
| COc1cc2c(cc1Nc1nc(Nc3cccc(F)c3C(N)=O)c3cc[nH]c3n1)N(C(=O)CN1CCCC1)CC2 | 1 | 1260 | 24 | – |
| COc1ccc(N(C)C(=O)CN(C)C)cc1Nc1nc(Nc2cccc(F)c2C(N)=O)c2cc[nH]c2n1 | 50 | 10000 | 377 | – |
| COc1cc(C)c(CCCN(C)C)cc1Nc1nc(Nc2cccc(F)c2C(N)=O)c2cc[nH]c2n1 | 13 | 501 | 840 | – |
| COc1ccc(CCCN(C)C)cc1Nc1nc(Nc2cccc(F)c2C(N)=O)c2cc[nH]c2n1 | 13 | 5010 | 212 | – |
| COc1cc2c(cc1Nc1nc(Nc3cccc(F)c3C(N)=O)c3cc[nH]c3n1)N(C(=O)CCN1CCOCC1)CC2 | 6 | 251 | 298 | – |
| COc1cc2c(cc1Nc1nc(Nc3cccc(F)c3C(N)=O)c3cc[nH]c3n1)N(C(=O)CN1CCOCC1)CC2 | 13 | 126 | 72 | – |
| COc1cc2c(cc1Nc1nc(Nc3cccc(F)c3C(N)=O)c3cc[nH]c3n1)N(C(C)=O)CC2 | 6 | 126 | 278 | – |
| COc1cc2c(cc1Nc1nc(Nc3cccc(F)c3C(N)=O)c3cc[nH]c3n1)N(C(=O)CN(C)C)CC2 | – | 1590 | 56 | clearance [4]: 48 mL/min/kg; AUC (Rattus norvegicus [5]): 190 ng·h/mL/mg/kg; Cmax [6]: 455 ng/mL; bioavailability [7]: 61%; IC50 [8]: 487 nM |
| COc1cc2c(cc1Nc1nc(Nc3cccc(F)c3C(N)=O)c3cc[nH]c3n1)N(C(C)=O)CCC2 | 25 | 7940 | 1980 | – |
| CNC(=O)c1c(F)cccc1Nc1nc(Nc2cc3c(cc2OC)CCN3C(=O)CN(C)C)nc2[nH]ccc12 | – | – | – | clearance [9]: 73 mL/min/kg; AUC (Rattus norvegicus [10]): 210 ng·h/mL/mg/kg; Cmax [11]: 365 ng/mL; bioavailability [12]: 98% |
| COc1cc(C)c(N2CCN(C(C)C)CC2)cc1Nc1nc(Nc2cccc(F)c2C(N)=O)c2cc[nH]c2n1 | – | 3890 | – | IC50 [13]: 6310 nM |

| SMILES | IC50 [1] [nM] | IC50 [2] [nM] | IC50 [3] [nM] | other results |
| --- | --- | --- | --- | --- |
| COc1ccc(OCCCN(C)C)cc1Nc1nc(Nc2cccc(F)c2C(N)=O)c2cc[nH]c2n1 | 8 | 631 | 81 | clearance [14]: 112 mL/min/kg; AUC (Rattus norvegicus [5]): 85 ng·h/mL/mg/kg; Cmax [6]: 192 ng/mL; bioavailability [7]: 60% |
| COc1ccc(N2CCN(C(C)C)CC2)cc1Nc1nc(Nc2cccc(F)c2C(N)=O)c2cc[nH]c2n1 | – | 3160 | 201 | IC50 [13]: 5010 nM; AUC (Rattus norvegicus [15]): 133 ng·h/mL/mg/kg; Cmax [16]: 233 ng/mL |
| COc1cc2c(cc1Nc1nc(Nc3cccc(F)c3C(N)=O)c3cc[nH]c3n1)N(C(=O)CCN1CCN(C(C)C)CC1)CC2 | 4 | 1590 | 651 | – |
| CCN(CC)CC(=O)N1CCc2cc(OC)c(Nc3nc(Nc4cccc(F)c4C(N)=O)c4cc[nH]c4n3)cc21 | 2 | 1000 | 85 | – |
| COc1ccc(NC(=O)CN(C)C)cc1Nc1nc(Nc2cccc(F)c2C(N)=O)c2cc[nH]c2n1 | 1 | 3160 | 28 | – |
| COc1cc2c(cc1Nc1nc(Nc3cccc(F)c3C(N)=O)c3cc[nH]c3n1)N(C(=O)CCN(C)C)CC2 | 8 | 794 | 191 | – |
| COc1cc2c(cc1Nc1nc(Nc3cccc(F)c3C(N)=O)c3cc[nH]c3n1)N(C(=O)CCN(C)C)CCC2 | 10 | 7940 | 209 | – |
| COc1cc2c(cc1Nc1nc(Nc3cccc(F)c3C(N)=O)c3cc[nH]c3n1)N(C(=O)CN1CCCCC1)CCC2 | 1 | 2510 | 11 | – |
| CCCN1CCC(Oc2cc(Nc3nc(Nc4cccc(F)c4C(N)=O)c4cc[nH]c4n3)c(OC)cc2Cl)CC1 [GSK-1713088A] | 25 | 3980 | 5370 | – |
| CCN(C)CC(=O)N1CCc2cc(OC)c(Nc3nc(Nc4cccc(F)c4C(N)=O)c4cc[nH]c4n3)cc21 | 3 | 3160 | 19 | – |
| COc1cc2c(cc1Nc1nc(Nc3cccc(F)c3C(N)=O)c3cc[nH]c3n1)N(C(=O)CN)CC2 | 4 | 1000 | 765 | – |
| CNCC(=O)N1CCc2cc(OC)c(Nc3nc(Nc4cccc(F)c4C(N)=O)c4cc[nH]c4n3)cc21 | 2 | 2000 | 79 | – |
| COc1cc2c(cc1Nc1nc(Nc3cccc(F)c3C(N)=O)c3cc[nH]c3n1)N(C(=O)CN1CCN(C(C)C)CC1)CC2 [GSK-1751853A] | 32 | 1590 | 376 | – |
| COc1cc(N2CCN(C(C)C)CC2)ccc1Nc1nc(Nc2cccc(F)c2C(N)=O)c2cc[nH]c2n1 | – | 13 | – | IC50 [17]: 0.5 nM; IC50 (Insulin receptor): 1.6 nM; IC50 [13]: 100 nM |
| COc1cc2c(cc1Nc1nc(Nc3cccc(F)c3C(N)=O)c3cc[nH]c3n1)N(C(=O)CN1CCC1)CC2 | 1 | 2000 | 128 | – |
| CCCN1CCC(Oc2ccc(OC)c(Nc3nc(Nc4cccc(F)c4C(N)=O)c4cc[nH]c4n3)c2)CC1 | 6 | 1260 | 929 | – |
| COc1cc2c(cc1Nc1nc(Nc3cccc(F)c3C(N)=O)c3cc[nH]c3n1)N(C(=O)Cn1ccnc1)CC2 | 32 | 631 | 7760 | – |
